Experimental data reported in US8648092B2, “Imidazo[1,2-a]pyridine derivatives: preparation and pharmaceutical applications” (MEI Pharma, priority 2005, dated 2014).

Experiments:
[1] = tested on: Colo205 cells; assay: Cell-based proliferation assay for determination of GI50 values (CyQUANT); parameters: species or system human; conditions: Homo sapiens
In short: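 Colo205 cells in RPMI 1640 with 5% FBS, seeded 5000/well and grown 24 h at 37 °C. Exposure to compound lasted 96 h, with growth read by CyQUANT. GI50 = concentration giving 50% growth inhibition, from dose-response curves.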

[2] = molecular target: HDAC1 enzyme (recombinant GST-HDAC1) (Homo sapiens (Human), UniProt Q13547); assay: In vitro HDAC assay for determination of IC50 values (BIOMOL fluorescent-based HDAC activity assay); assay type: biochemical; conditions: Flur de lys substrate, 2 h room temperature, read-out: IC50 (HDAC 1)
In short: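 Recombinant human GST-HDAC1, baculovirus-expressed in SF9 cells and glutathione-purified, tested with a fluorogenic deacetylase substrate; Fluor de Lys developer added for 10 min. Fluorescence at 360 nm excitation/460 nm emission; IC50 fitted from a concentration series.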

[3] = tested on: acetylated histone H3 in Colo205 cells; assay: Histone acetylation assay (immuno-blotting with acetylated histone H3 antibody); assay type: cell-based, human; conditions: 10 μM, 24 h, western blot
Experimental: Histone Acetylation Assay
A hallmark of histone deacetylase (HDAC) inhibition is the increase in the acetylation level of histones. Histone acetylation, including H3, H4 and H2A can be detected by immuno-blotting (western-blot). Colo205 cells, approximately 5×10^5 cells, were seeded in the previously described medium, cultivated for 24 h and subsequently treated with HDAC inhibitory agents and a positive control at 10 μM final concentration. After 24 h, cells were harvested and lysed according to the instruction from Sigma Mammalian Cell Lysis Kit. The protein concentration was quantified using BCA method (Sigma Pte Ltd). The protein lysate was separated using 4-12% bis-tris SDS-PAGE gel (Invitrogen Pte Ltd) and was transferred onto PVDF membrane (BioRad Pte Ltd). The membrane was probed using primary antibody specific for acetylated histone H3 (Upstate Pte Ltd). The detection antibody, goat anti rabbit antibody conjugated with HRP was used according to the manufacturing instruction (Pierce Pte Ltd). After removing the detection antibody from the membrane, an enhanced chemiluminescent substrate for detection of HRP (Pierce Pte Ltd) was added onto the membrane. After removing the substrate, the membrane was exposed to an X-ray film (Kodak) for 1 sec-20 mins. The X-ray film was developed using the X-ray film processor. The density of each band observed on the developed film could be qualitatively analysed using UVP Bioimaging software (UVP, Inc, Upland, Calif.). The values were then normalized against the density of actin in the corresponding samples to obtain the expression of the protein.
The results of immuno-blotting assay using acetylated histone H3 antibody are shown in Table 5 for representative compounds of this invention.

Chain of HDAC1 enzyme (recombinant GST-HDAC1) (Q13547 whole entry): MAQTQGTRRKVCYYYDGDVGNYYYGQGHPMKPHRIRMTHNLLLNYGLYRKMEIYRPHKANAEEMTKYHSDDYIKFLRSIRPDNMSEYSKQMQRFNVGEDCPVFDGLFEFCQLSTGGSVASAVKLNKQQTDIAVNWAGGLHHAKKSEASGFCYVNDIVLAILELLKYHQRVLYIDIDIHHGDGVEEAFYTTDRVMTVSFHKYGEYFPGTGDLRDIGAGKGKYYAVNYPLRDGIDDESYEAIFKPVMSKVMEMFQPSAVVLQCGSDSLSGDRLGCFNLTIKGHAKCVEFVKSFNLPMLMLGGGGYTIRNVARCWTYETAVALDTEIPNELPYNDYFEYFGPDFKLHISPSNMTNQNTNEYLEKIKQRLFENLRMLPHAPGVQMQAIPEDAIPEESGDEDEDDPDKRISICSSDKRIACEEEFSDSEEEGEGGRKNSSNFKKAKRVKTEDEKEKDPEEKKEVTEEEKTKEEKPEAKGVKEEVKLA

With CCCCNCc1c(-c2ccccc2)nc2cc(/C=C/C(=O)NO)ccn12 [Compound 39, 3-(3-Butylaminomethyl-2-phenyl-imidazo[1,2-a]pyridin-7-yl)-N-hydroxy-acrylamide] the GI50 ([1]; COLO 205, 96 h treatment) was 440 nM, the IC50 [2] was 160 nM and the “Histone acetylation activities (Histone-3)” value [3] was “active”.
With CCCN(C)Cc1c(-c2ccccc2)nc2cc(C=CC(=O)NO)ccn12 [Compound 40, N-Hydroxy-3-{3-[(methyl-propyl-amino)-methyl]-2-phenyl-imidazo[1,2-a]pyridin-7-yl}-acrylamide] the GI50 ([1]; COLO 205, 96 h treatment) was 790 nM, the IC50 [2] was 240 nM and the “Histone acetylation activities (Histone-3)” value [3] was “active”.
For CC(C)(C)NCc1c(-c2ccccc2)nc2cc(/C=C/C(=O)NO)ccn12 [Compound 45, 3-[3-(tert-Butylamino-methyl)-2-phenyl-imidazo[1,2-a]pyridin-7-yl]-N-hydroxy-acrylamide], the GI50 ([1]; COLO 205, 96 h treatment) was 260 nM, the IC50 [2] was 45 nM and the “Histone acetylation activities (Histone-3)” value [3] was “active”.
With CCCCNCc1c(C(C)(C)C)nc2cc(/C=C/C(=O)NO)ccn12 [Compound 49, 3-(2-tert-Butyl-3-butylaminomethyl-imidazo[1,2-a]pyridin-7-yl)-N-hydroxy-acrylamide] the GI50 ([1]; COLO 205, 96 h treatment) was 590 nM, the IC50 [2] was 160 nM and the “Histone acetylation activities (Histone-3)” value [3] was “active”.
In the case of O=C(/C=C/c1ccn2c(CN3CCCC3)c(-c3ccccc3)nc2c1)NO [Compound 60, N-Hydroxy-3-(2-phenyl-3-pyrrolidin-1-ylmethyl-imidazo[1,2-a]pyridin-7-yl)-acrylamide], the GI50 ([1]; COLO 205, 96 h treatment) is reported as 480 nM, the IC50 [2] is reported as 84 nM and the “Histone acetylation activities (Histone-3)” value [3] is reported as “active”.
CCCCNCc1c(-c2ccc(F)cc2)nc2cc(/C=C/C(=O)NO)ccn12 [Compound 63, 3-[3-Butylaminomethyl-2-(4-fluoro-phenyl)-imidazo[1,2-a]pyridin-7-yl]-N-hydroxy-acrylamide] was tested, and the GI50 ([1]; COLO 205, 96 h treatment) was 540 nM, the IC50 [2] was 63 nM and the “Histone acetylation activities (Histone-3)” value [3] was “active”.
With CC(C)(C)NCc1c(-c2ccc(F)cc2)nc2cc(/C=C/C(=O)NO)ccn12 [Compound 64, 3-[3-(tert-Butylamino-methyl)-2-(4-fluoro-phenyl)-imidazo[1,2-a]pyridin-7-yl]-N-hydroxy-acrylamide] the GI50 ([1]; COLO 205, 96 h treatment) was 270 nM, the IC50 [2] was 51 nM and the “Histone acetylation activities (Histone-3)” value [3] was “active”.
Molecule CCCCN(CC)Cc1c(CC(C)C)nc2cc(/C=C/C(=O)NO)ccn12 [Compound 134, 3-{3-[(Butyl-ethyl-amino)-methyl]-2-isobutyl-imidazo[1,2-a]pyridin-7-yl}-N-hydroxy-acrylamide] has a GI50 ([1]; COLO 205, 96 h, 96 h treatment) of 150 nM and an IC50 [2] of 40 nM.
For CCc1nc2cc(/C=C/C(=O)NO)ccn2c1CNC(C)(C)C [Compound 137, 3-[3-(tert-Butylamino-methyl)-2-ethyl-imidazo[1,2-a]pyridin-7-yl]-N-hydroxy-acrylamide], the GI50 ([1]; COLO 205, 96 h treatment) was 260 nM and the IC50 [2] was 30 nM.
For CCCCN(CC)Cc1c(CC)nc2cc(/C=C/C(=O)NO)ccn12 [Compound 138, 3-{3-[(Butyl-ethyl-amino)-methyl]-2-ethyl-imidazo[1,2-a]pyridin-7-yl}-N-hydroxy-acrylamide], the GI50 ([1]; COLO 205, 96 h treatment) was 180 nM and the IC50 [2] was 50 nM.
Molecule CCc1nc2cc(/C=C/C(=O)NO)ccn2c1CN(CC)CCC(C)C [Compound 139, 3-(2-Ethyl-3-{[ethyl-(3-methyl-butyl)-amino]-methyl}-imidazo[1,2-a]pyridin-7-yl)-N-hydroxy-acrylamide] has a GI50 ([1]; COLO 205, 96 h treatment) of 100 nM and an IC50 [2] of 20 nM.
For CC(C)CCc1nc2cc(/C=C/C(=O)NO)ccn2c1CNC(C)(C)C [Compound 140, 3-[3-(tert-Butylamino-methyl)-2-(3-methyl-butyl)-imidazo[1,2-a]pyridin-7-yl]-N-hydroxy-acrylamide], the GI50 ([1]; COLO 205, 96 h treatment) was 100 nM and the IC50 [2] was 20 nM.
Molecule CCCCN(CC)Cc1c(CCC(C)C)nc2cc(/C=C/C(=O)NO)ccn12 [Compound 141, 3-[3-[(Butyl-ethyl-amino)-methyl]-2-(3-methyl-butyl)-imidazo[1,2a]pyridin-7-yl]-N-hydroxy-acrylamide] has a GI50 ([1]; COLO 205, 96 h treatment) of 160 nM and an IC50 [2] of 40 nM.
For CCN(CCC(C)(C)C)Cc1c(CCC(C)C)nc2cc(/C=C/C(=O)NO)ccn12 [Compound 143, 3-[3-{[(3,3-Dimethyl-butyl)-ethyl-amino]-methyl}-2-(3-methyl-butyl)-imidazo[1,2-a]pyridin-7-yl]-N-hydroxy-acrylamide], the GI50 ([1]; COLO 205, 96 h treatment) was 130 nM and the IC50 [2] was 40 nM.
